For one data set, the target named is GLP-1R (Homo sapiens, UniProt P43220). The data set is described as follows: GLP-1R activation: cAMP increase in CHO cells stably expressing GLP-1R. The settings on record: read-out: EC50. It counts as cell-based.
Data set [1] in a line: Microsomal stability, human liver microsomes (predicted hepatic clearance). The settings on record: predicted from in vitro microsomal stability data.
Setting [2] is: cAMP increase, CHO cells stably expressing GLP-1R, 10 point dose response, 30 minutes incubation.

Read-outs that look alike come from different tables or passages of the source.

GLP-1R, sequence (P43220 24-463): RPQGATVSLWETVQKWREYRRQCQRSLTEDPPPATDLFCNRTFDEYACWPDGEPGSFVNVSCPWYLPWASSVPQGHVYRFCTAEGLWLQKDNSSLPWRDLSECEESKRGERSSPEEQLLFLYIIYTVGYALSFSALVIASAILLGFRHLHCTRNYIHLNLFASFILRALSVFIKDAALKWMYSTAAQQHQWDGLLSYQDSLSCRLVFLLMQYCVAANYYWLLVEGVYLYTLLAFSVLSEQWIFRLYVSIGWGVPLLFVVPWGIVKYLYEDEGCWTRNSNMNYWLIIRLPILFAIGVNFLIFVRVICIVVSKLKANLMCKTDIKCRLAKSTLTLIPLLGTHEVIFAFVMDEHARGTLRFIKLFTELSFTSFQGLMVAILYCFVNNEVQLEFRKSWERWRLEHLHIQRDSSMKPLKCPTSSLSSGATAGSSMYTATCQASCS

With `COCCn1c(Cc2cc(F)c(-c3cccc(OCc4ccc(-c5cnn(C)c5)cc4F)n3)cc2F)nc2ccc(C(=O)O)cc21` [Example 915, 2-[[2,5-difluoro-4-[6-[[2-fluoro-4-(1-methylpyrazol-4-yl)phenyl]methoxy]-2-pyridyl]phenyl]methyl]-3-(2-methoxyethyl)benzimidazole-5-carboxylic acid], the EC50 at GLP-1R (setting [2]) worked out at 0.00226 µM. Also, the “Predicted Hepatic Clearance (Pred. Cl.)” value in data set [1] is 4 mL/min/kg.
Consider `COCCn1c(Cc2cc(F)c(-c3cccc(OCc4ccc(-c5cnccn5)cc4F)n3)cc2F)nc2ccc(C(=O)O)cc21` [Example 916], for which the EC50 at GLP-1R (setting [2]) worked out at 0.00218 µM. Also, in data set [1], the “Predicted Hepatic Clearance (Pred. Cl.)” value is 1.83 mL/min/kg.
`COCCn1c(Cc2cc(F)c(-c3cccc(OCc4ccc(-c5ccn(C)n5)cc4F)n3)cc2F)nc2ccc(C(=O)O)cc21` [Example 917]: the EC50 at GLP-1R (setting [2]) was determined as 0.0567 µM. For the same compound, the “Predicted Hepatic Clearance (Pred. Cl.)” value in data set [1] was 1.83 mL/min/kg.
With `CO[C@H]1CN(C(C)=O)C[C@H]1n1c(Cc2cc(F)c(-c3cccc(OCc4ccc(C#N)cc4F)n3)cc2F)nc2ccc(C(=O)O)cc21` [Example 918, 3-[(3R,4S)-1-acetyl-4-methoxy-pyrrolidin-3-yl]-2-[[4-[6-[(4-cyano-2-fluoro-phenyl)methoxy]-2-pyridyl]-2,5-difluoro-phenyl]methyl]benzimidazole-5-carboxylic acid], on GLP-1R, the EC50 worked out at 0.0249 µM. Besides, in data set [1], the “Predicted Hepatic Clearance (Pred. Cl.)” value was 4.83 mL/min/kg.
The corresponding values for `CO[C@@H]1CN(C(C)=O)C[C@@H]1n1c(Cc2cc(F)c(-c3cccc(OCc4ccc(C#N)cc4F)n3)cc2F)nc2ccc(C(=O)O)cc21` [Example 919] are 0.84 µM and 4.17 mL/min/kg.
With `CO[C@@H]1CN(C(C)=O)C[C@H]1n1c(Cc2cc(F)c(-c3cccc(OCc4ccc(C#N)cc4F)n3)cc2F)nc2ccc(C(=O)O)cc21` [Example 920], the EC50 at GLP-1R came to 0.0585 µM. In data set [1], the “Predicted Hepatic Clearance (Pred. Cl.)” value was 4.67 mL/min/kg.
With `Cc1cc2nc(Cc3cc(F)c(-c4cccc(OCc5ccc(C#N)cc5F)n4)cc3F)n(C[C@@H]3CCO3)c2cc1C(=O)O` [Example 921], on GLP-1R (setting [2]), the concentration giving a half-maximal response (EC50) amounted to 0.00033 µM. Besides, the “Predicted Hepatic Clearance (Pred. Cl.)” value in data set [1] was 2.83 mL/min/kg.
Take `CC(=O)N1CC[C@@H]1Cn1c(Cc2cc(F)c(-c3cccc(OCc4ccc(C#N)cc4F)n3)cc2F)nc2ccc(C(=O)O)cc21` [Example 925, (R)-1-((1-acetylazetidin-2-yl)methyl)-2-(4-(6-((4-cyano-2-fluorobenzyl)oxy)pyridin-2-yl)-2,5-difluorobenzyl)-1H-benzo[d]imidazole-6-carboxylic acid]: the EC50 on GLP-1R was determined as 0.00363 µM. Also, in data set [1], the “Predicted Hepatic Clearance (Pred. Cl.)” value was 5.83 mL/min/kg.
As to `COCCn1c(Cc2cc(F)c(-c3cccc(OCc4ccc(C#N)cc4F)n3)cc2F)nc2cc(C)c(C(=O)O)cc21` [Example 926, 2-(4-(6-((4-cyano-2-fluorobenzyl)oxy)pyridin-2-yl)-2,5-difluorobenzyl)-1-(2-methoxyethyl)-5-methyl-1H-benzo[d]imidazole-6-carboxylic acid], at GLP-1R (setting [2]), the EC50 is 0.0118 µM. For the same compound, in data set [1], the “Predicted Hepatic Clearance (Pred. Cl.)” value is 1.83 mL/min/kg.

Values taken from patent US11702404B2, “GLP-1R modulating compounds” (priority 2019, dated 2023).
